In patent US20100311782A1, “SUBSTITUTED PIPERIDINYLPROPANOIC ACID COMPOUNDS AND METHODS OF THEIR USE” (priority 2009, published 2010):
pKi: −log10 of the molar value.

Assays:
[1] = biological target: T1, cloned human δ opioid receptor (Homo sapiens, UniProt P41143); assay: Receptor binding, [3H]diprenorphine displacement, delta opioid receptor; conditions: read-out: DOR Ki
T1 construct: expressed in transfected cells

[2] = biological target: T2, cloned human κ opioid receptor (Homo sapiens, UniProt P41145); assay: Receptor binding, [3H]diprenorphine displacement, kappa opioid receptor; conditions: [3H]diprenorphine, cloned human kappa opioid receptor; read-out: KOR Ki
T2 construct: expressed in transfected cells

[3] = biological target: T3, cloned human μ opioid receptor (Homo sapiens, UniProt P35372); assay: Inhibition of agonist (loperamide)-stimulated [35S]GTPγS binding; assay type: biochemical; conditions: in vitro studies
T3 construct: expressed in transfected cells
Experimental: The potencies of the antagonists were assessed by their abilities to inhibit agonist-stimulated [^35S]GTPγS binding to membranes containing the cloned human μ, κ, or δ opioid receptors. The agonist used for the μ opioid receptor was loperamide.
To determine the IC50 value, which was the concentration to give half-maximal inhibition of agonist-stimulated [^35S]GTPγS binding, the amount of [^35S]GTPγS bound in the presence of a fixed concentration of agonist and various concentrations of antagonist was measured. The fixed concentration of agonist was the EC80 for the agonist, which was the concentration to give 80% of the relative maximum stimulation of [^35S]GTPγS binding. The IC50 value was determined from a best nonlinear regression fit of the data to the following equation,
where Y is the amount of [^35S]GTPγS bound at each concentration of antagonist, Bottom is the calculated amount of [^35S]GTPγS bound in the presence of an infinite concentration of antagonist, Top is the calculated amount of [^35S]GTPγS bound in the absence of added antagonist, X is the logarithm of the concentration of antagonist, and LogIC50 is the logarithm of the concentration of antagonist where the amount of [^35S]GTPγS bound is halfway between Bottom and Top. The nonlinear regression fit was performed using GraphPad Prism® version 3.00 for Windows (GraphPad Software, San Diego, Calif.).

[4] = biological target: T3, cloned human μ opioid receptor; assay: Receptor binding, [3H]diprenorphine displacement, mu opioid receptor; conditions: [3H]diprenorphine, cloned human mu opioid receptor; read-out: MOR Ki

T3 sequence (P35372 whole entry): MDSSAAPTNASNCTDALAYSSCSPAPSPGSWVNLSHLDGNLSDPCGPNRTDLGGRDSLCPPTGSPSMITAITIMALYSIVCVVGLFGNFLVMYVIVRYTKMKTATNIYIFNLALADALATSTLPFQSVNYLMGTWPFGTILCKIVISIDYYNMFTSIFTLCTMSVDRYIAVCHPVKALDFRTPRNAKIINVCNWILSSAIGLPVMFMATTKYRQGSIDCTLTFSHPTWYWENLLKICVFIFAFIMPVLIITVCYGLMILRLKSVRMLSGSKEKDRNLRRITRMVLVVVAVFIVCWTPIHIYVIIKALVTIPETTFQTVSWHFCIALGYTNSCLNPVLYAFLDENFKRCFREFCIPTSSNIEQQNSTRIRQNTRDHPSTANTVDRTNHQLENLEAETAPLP
T1 sequence (P41143 whole entry): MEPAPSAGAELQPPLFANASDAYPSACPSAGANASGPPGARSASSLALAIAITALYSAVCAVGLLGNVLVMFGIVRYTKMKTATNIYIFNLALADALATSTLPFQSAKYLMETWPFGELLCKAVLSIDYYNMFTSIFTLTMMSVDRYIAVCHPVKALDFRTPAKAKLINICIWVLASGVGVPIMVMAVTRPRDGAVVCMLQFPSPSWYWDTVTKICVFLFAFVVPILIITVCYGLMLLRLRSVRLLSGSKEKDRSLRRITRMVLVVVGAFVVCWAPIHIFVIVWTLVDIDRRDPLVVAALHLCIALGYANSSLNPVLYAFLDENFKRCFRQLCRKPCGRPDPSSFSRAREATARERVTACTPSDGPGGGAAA
T2 sequence (P41145 whole entry): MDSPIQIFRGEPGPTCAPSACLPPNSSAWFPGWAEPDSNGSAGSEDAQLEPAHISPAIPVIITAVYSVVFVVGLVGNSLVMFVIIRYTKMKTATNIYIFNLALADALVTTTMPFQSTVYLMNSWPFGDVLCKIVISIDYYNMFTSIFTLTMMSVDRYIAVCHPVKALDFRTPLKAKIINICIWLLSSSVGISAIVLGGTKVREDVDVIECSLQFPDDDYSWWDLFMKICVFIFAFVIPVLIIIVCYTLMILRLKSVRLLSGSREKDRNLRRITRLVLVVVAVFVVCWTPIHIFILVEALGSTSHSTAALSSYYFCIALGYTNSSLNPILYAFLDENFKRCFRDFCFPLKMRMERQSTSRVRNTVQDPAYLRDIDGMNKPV

Question: Which results are given for `C[C@H]1CN(C[C@H](Cc2ccccc2)C(=O)O)CC[C@@]1(C)c1cccc(C(=O)O)c1` [Example C-1, 3-[1-(2S-Carboxy-3-phenyl-propyl)-3R,4R-dimethyl-piperidin-4-yl]-benzoic acid, reference compound]?
Answer: pKi [1]: < 5.00; pKi [2]: < 5.00; inhibition of agonist-stimulated [35S]GTPγS binding relative to the other test compounds [3]: significantly reduced inhibition; pKi [4]: 5.64
